Results from paper PMC7801683 (2021).

Experiments:
[1] = test system: 5'-biotin-TEG r(UGGAA)9 (RNA, repeat) UGGAAUGGAAUGGAAUGGAAUGGAAUGGAAUGGAAUGGAAUGGAA; experiment: SPR; details: 150 mM NaCl; 10 mM HEPES pH 7.4, 3 mM EDTA, 0.05% P20; 500 nM compound
[2] = test system: GGA/GGA internal loop RNA duplex (UGGAA/UGGAA pentad) (RNA, mismatch bulge abasic) GUACUGGAACAUG/CAUGUGGAAGUAC; experiment: UV melting; details: 100 mM NaCl; 10 mM sodium cacodylate pH 7.0; 20 µM compound, 4 µM RNA
[3] = test system: SCA31 hpRNA (RNA, hairpin) GUACUGGAACAUGUUUCAUGUGGAAGUAC; experiment: ITC; details: 100 mM NaCl; 10 mM sodium cacodylate pH 7.0, 25 °C; apparent; single set of identical sites
[4] = test system: GGA/AGA internal loop RNA duplex (RNA, mismatch bulge abasic) GUACUGGAACAUG/CAUGUAGAAGUAC; experiment: UV melting; details: 100 mM NaCl; 10 mM sodium cacodylate pH 7.0; 20 µM compound, 4 µM RNA
[5] = test system: r(UAAAA)9 (RNA, repeat) UAAAAUAAAAUAAAAUAAAAUAAAAUAAAAUAAAAUAAAAUAAAA; experiment: UV melting; details: 100 mM NaCl; 10 mM sodium cacodylate pH 7.0; 20 µM compound, 2 µM RNA
[6] = test system: SCA31 hpRNA (RNA, hairpin) GUACUGGAACAUGUUUCAUGUGGAAGUAC; experiment: NMR solution structure; details: 100 mM NaCl; 20 mM sodium phosphate pH 6.9, 288 K
[7] = test system: SCA31 hpRNA (RNA, hairpin) GUACUGGAACAUGUUUCAUGUGGAAGUAC; experiment: ESI-TOF MS; details: 100 mM ammonium acetate; 50% methanol; 10 µM RNA, 40 µM compound
[8] = test system: r(UGGAA)9 (RNA, repeat) UGGAAUGGAAUGGAAUGGAAUGGAAUGGAAUGGAAUGGAAUGGAA; experiment: UV melting; details: 100 mM NaCl; 10 mM sodium cacodylate pH 7.0; 20 µM compound, 2 µM RNA; Tm 73.7 °C with NCD, none without
[9] = test system: r(UGGAA)9 (RNA, repeat) UGGAAUGGAAUGGAAUGGAAUGGAAUGGAAUGGAAUGGAAUGGAA; experiment: EMSA; details: 100 mM NaCl; 10 mM sodium cacodylate pH 7.0, room temperature; 2 µM compound

- binding [1]: yes
- Tm [2]: 21.5 °C
- Kd(app) [3]: 0.032 µM
- ΔTm [4]: 5.2 °C
- binding [5]: no
- binding [6]: yes
- binding [7]: yes
- binding [8]: yes
- binding [9]: yes
SMILES: Cc1ccc2ccc(NC(=O)OCCCNCCCOC(=O)Nc3ccc4ccc(C)nc4n3)nc2n1
